Patent EP0367747A2, “Dideoxy-L-arabinitol derivatives as antiviral compounds” (G.D. Searle & Co., priority 1988, dated 1990)
Read-outs that look alike come from different tables or passages of the source.

Legend:
[1] = test system: Sheep choroid plexus(SCP) cells; assay: Toxicity of compounds in control wells without virus, graded morphologically 0 to 4; format: cell-based; set-up: key: 0 = no toxicity; 4 = total cell lyses; settings: 0 to 4 scale
Procedure: (§1) SCP cells were cultured in 6-well plates to confluence. Wells were washed two times with serum free Minimal Essential Medium (MEM) to remove FBS. 0.2ml of virus was added per well in MEM supplemented with 4mM glutamine and gentamycin. After 1 hour adsorption, the virus was aspirated from each well. The appropriate concentration of each compound in 5 ml of Medium 199 (M-199) supplemented with 2% lamb serum, 4mM glutamine, 0.5% agarose and gentamycin was added to each well. Cultures were incubated at 37°C in a humidified 5% CO₂ incubator for 3-4 weeks. To terminate the test: cultures were fixed in 10% formalin, the agar removed, the monolayers stained with 1% crystal violet and plaques counted. Each compound concentration was run in triplicate. […] 0 is no toxicity observed while 4 is total lysing of the cell monolayer.
Control wells without virus were completed to determine the toxicity of compounds.

[2] = target: T1, Yeast alpha-glucosidase (Saccharomyces cerevisiae, UniProt P53341); assay: Alpha-glucosidase inhibition assay, pH 7.4 (p-nitrophenol release); format: biochemical
T1 construct: purchased Sigma
T1 sequence (P53341 whole entry): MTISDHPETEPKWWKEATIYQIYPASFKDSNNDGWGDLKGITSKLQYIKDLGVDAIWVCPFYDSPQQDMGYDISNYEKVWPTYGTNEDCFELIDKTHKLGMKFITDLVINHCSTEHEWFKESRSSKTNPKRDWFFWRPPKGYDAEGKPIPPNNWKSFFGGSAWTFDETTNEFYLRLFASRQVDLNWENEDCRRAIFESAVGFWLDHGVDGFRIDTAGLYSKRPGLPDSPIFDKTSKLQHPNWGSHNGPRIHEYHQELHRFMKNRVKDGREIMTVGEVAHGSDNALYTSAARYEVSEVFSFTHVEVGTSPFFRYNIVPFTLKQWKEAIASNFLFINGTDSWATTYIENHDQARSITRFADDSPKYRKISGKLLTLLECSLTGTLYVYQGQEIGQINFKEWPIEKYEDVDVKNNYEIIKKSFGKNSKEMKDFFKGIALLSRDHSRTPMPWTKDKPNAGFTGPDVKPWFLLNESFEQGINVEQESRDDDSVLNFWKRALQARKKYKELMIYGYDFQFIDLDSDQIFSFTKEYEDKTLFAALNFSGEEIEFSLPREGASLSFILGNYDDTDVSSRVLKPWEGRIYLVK
Procedure: (§2) Yeast alpha-glucosidase and almond beta-glucosidase activities were measured by a modification of the method of Evans, et al., Phytochemistry 22, 768-770 (1983). The modifications included 1) assay of activities at pH 7.4 in HEPES (N-2-hydroxyethylpiperazine-N′-2-ethanesulfonic acid) buffer, 2) measurement in 96 well microtiter plates and 3) inclusion of 10% DMSO in control and test samples. The release of p-nitrophenol from the substrate p-nitrophenylglycoside was measured spectrophotometrically in the presence and absence of test compound. Each assay included a known inhibitor of the enzyme as a standard. IC₅₀ values were determined for compounds which inhibited the enzymes more than 50% at a 1 millimolar concentration. To 100 µl 50 mM HEPES buffer, pH 7.4, in a microtiter plate, add 20 µl test compound in DMSO (DMSO alone in control), 40 µl (0.013 units) yeast alpha-glucosidase (Sigma) in HEPES buffer and pre-incubate at room temperature for 15 minutes. […] Absorption change was measured at 15 to 25 minutes (reaction was linear for at least 30 minutes). Each sample was tested in triplicate. IC₅₀ values were determined from the linear portion of the log concentration vs % inhibition curve obtained from a minimum of 3 points. Deoxynojirimycin was used as standard inhibitor.

[3] = test system: almond beta-glucosidase; assay: Beta-glucosidase inhibition assay, pH 7.4 (p-nitrophenol release); format: biochemical; settings: for β-Glucosidase pH 7.4 % Inhibition: Table 5, at 1.0 mM; for IC50: Table 3, at pH 7.4, read-out: β-glucosidase IC₅₀
Procedure: as §2, with “µl (0.136” for “µl (0.013”, “units) beta-glucosidase” for “units) yeast alpha-glucosidase”, “(reaction is” for “(reaction was”, “points. Castanospermine” for “points. Deoxynojirimycin”

[4] = test system: almond beta-glucosidase; assay: Beta-glucosidase inhibition assay, pH 4.8 (p-nitrophenol release); format: biochemical; settings: for β-Glucosidase pH 4.8 % Inhibition: Table 5, at 1.0 mM; for IC50: Table 3, at pH 4.8, read-out: β-glucosidase IC₅₀
Procedure: Yeast alpha-glucosidase and almond beta-glucosidase activities were measured by a modification of the method of Evans, et al., Phytochemistry 22, 768-770 (1983). The modifications included 1) assay of activities at pH 7.4 in HEPES (N-2-hydroxyethylpiperazine-N′-2-ethanesulfonic acid) buffer, 2) measurement in 96 well microtiter plates and 3) inclusion of 10% DMSO in control and test samples. The release of p-nitrophenol from the substrate p-nitrophenylglycoside was measured spectrophotometrically in the presence and absence of test compound. Each assay included a known inhibitor of the enzyme as a standard. IC₅₀ values were determined for compounds which inhibited the enzymes more than 50% at a 1 millimolar concentration. To 100 µl 50 mM sodium citrate buffer, pH 4.8, in a microtiter plate, add 15 µl test compound in DMSO (DMSO alone in control), 20 µl (.017 units) beta-glucosidase (Sigma) in citrate buffer and pre-incubate at room temperature for 15 minutes. Add 25 µl 2.50 mM p-nitrophenyl-beta-D-glucopyranside in citrate buffer, as substrate. Incubate at room temperature 20 minutes (reaction is linear for at least 30 minutes). Add 50 µl 0.4 M NaOH. Read absortion change at 405 nm in a Biotek EIA Autoreader. Each sample was tested in triplicate. IC₅₀ values were determined from the linear portion of the log concentration vs % inhibition curve obtained from a minimum of 3 points. Castanospermine was used as standard inhibitor.

[5] = test system: visna virus; assay: Inhibition of visna virus in vitro (plaque reduction assay / 96 well plate assay) in SCP cells; format: cell-based; settings: Visna-maedi virus
Procedure: Various compounds as prepared above were tested for inhibition of visna virus in vitro in a plaque reduction assay as follows:
Sheep choroid plexus(SCP) cells were obtained from American Type Culture Collection (ATCC) catalogue number CRL 1700 and were routinely passaged in vitro in Dulbecco's Modified Eagles (DME) medium supplemented with 20% fetal bovine serum (FBS). SCP cells were passaged once per week at a 1:2 or 1:3 split ratio. Visna was titrated by plaque assay in six-well plates. Virus pools were stored at -70°C.
as §1
The 96 well plate assay was performed similarly to the plaque assay above with modifications. SCP cells were seeded at 1 x 10⁴ cells per well in 0.1 ml DME medium. When confluent, the wells were washed with serum free MEM and 25ul of virus added in M-199 supplemented with 2% lamb serum. After 1 hour, 75uL of medium containing test compound was added to each well containing virus. After 2-3 weeks incubation the cytopathic effect of the virus was determined by staining with a vital stain. Cell viability was measured by determining stain density using a 96 well plate reader.

[6] = Table 5, values marked *, read-out: α-Glucosidase IC₅₀
[7] = Table 3, pH 7.4, read-out: α-glucosidase IC₅₀

Compound	Toxicity ([1]; Table 4, 0.01 mM Concn.)	Toxicity ([1]; Table 4, 0.1 mM Concn.)	IC50 [2, 6]	β-Glucosidase pH 7.4 % Inhibition [3]	β-Glucosidase pH 4.8 % Inhibition [4]	inhibition at 1 µM ([5]; Concentration 0.001 mM)	inhibition at 10 µM ([5]; Concentration 0.01 mM)	inhibition at 100 µM ([5]; Concentration 0.1 mM)	inhibition at 1000 µM ([5]; Concentration 1.0 mM)	Toxicity ([1]; Concentration 0.001 mM)	Toxicity ([1]; Concentration 0.01 mM)	Toxicity ([1]; Concentration 0.1 mM)	Toxicity ([1]; Concentration 1.0 mM)	inhibition at 1000 µM ([2]; Table 5, at 1.0 mM, read-out: α-Glucosidase % Inhibition)	Toxicity ([1]; Table 4, 1.0 mM Concn.)	IC50 [2, 7]	IC50 [3]	IC50 [4]
OCCN1C[C@H](O)[C@@H](O)[C@@H]1CO [Example 2, 1,4-Dideoxy-1,4-([2-hydroxyethyl]imino)-L-arabinitol]	0	0	178 µM	45%	14%	–	–	–	–	–	–	–	–	–	–	–	–	–
CC(=O)OCCN1C[C@H](OC(C)=O)[C@@H](OC(C)=O)[C@@H]1COC(C)=O [Example 3, 1,4-([2-Acetyloxyethyl]imino)-1,4-dideoxy-L-arabinitol, triacetate]	–	–	–	5%	12%	-46%	-64%	72%	90%	0	0	0	0	15%	–	–	–	–
CCCCN1CC(O)C(O)C1CO [Example 4, 1,4-(Butylimino)-1,4-dideoxy-L-arabinitol]	0	0	227 µM	26%	20%	–	–	–	–	–	–	–	–	–	0	–	–	–
OC[C@H]1[C@H](O)[C@@H](O)CN1Cc1ccc(Cl)cc1 [Example 8, 1,4-([4-Chlorophenyl]methylimino)-1,4-dideoxy-L-arabinitol]	0	–	–	26%	19%	–	–	–	–	–	–	–	–	–	3	2.2 µM	> 1000 µM	> 1000 µM
OC[C@H]1[C@H](O)[C@@H](O)CN1CCCc1ccccc1 [Example 16, 1,4-([3-Propylphenyl]imino)-1,4-dideoxy-L-arabinitol]	0	0	–	31%	34%	–	–	–	–	–	–	–	–	–	3	13 µM	> 1000 µM	> 1000 µM
O=C(OCc1ccccc1)N1C[C@H](O)[C@@H](O)[C@@H]1CO [Example 17, 1,4-(Benzyloxycarbonylimino)-1,4-dideoxy-L-arabinitol]	–	–	482 µM	4%	4%	–	–	–	–	–	–	–	–	–	–	–	–	–
